# Data: ChEMBL document CHEMBL1201862, “PubChem BioAssay data set” (2004)
# Calls of active or inactive are those of the source.
# Assays:
# [1] = Luminescence Cell-Based Dose Confirmation HTS to Identify Activators of 5'UTR Stem-Loop Driven Alpha-Synuclein mRNA Translation in H4 Neuroglioblastoma Cells. [Related pubchem assays: 1829 (Project Summary), 1814 (Primary HTS)]; assay type: functional
# [2] = Luminescence Cell-Based Dose Response HTS to Identify Activators of Luciferase Translation or Activity in H4 […] Cells. [Related pubchem assays: 1829 (Project Summary), 1814 (Primary HTS)]; assay type: functional
# Bcl-2-like protein 10 = target: T1, Bcl-2-like protein 10 (Homo sapiens, UniProt Q9HD36); test: Bcl-B/TR3 peptide binding disruption – biochemical, fluorescence polarization, FITC-TR3 peptide, selectivity assay for Bfl-1 inhibitor project, primary screen (AID 748);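 also: fluorescence polarization from a fluorescein-labelled TR3 peptide binding purified Bcl-B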
# T1 sequence (Q9HD36 whole entry): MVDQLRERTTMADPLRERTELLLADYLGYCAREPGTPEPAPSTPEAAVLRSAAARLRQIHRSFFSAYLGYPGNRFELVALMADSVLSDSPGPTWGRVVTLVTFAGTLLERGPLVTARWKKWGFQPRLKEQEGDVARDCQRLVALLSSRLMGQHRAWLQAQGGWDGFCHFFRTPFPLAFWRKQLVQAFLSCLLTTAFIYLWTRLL
# H4 = test: Luminescence Cell-Based Dose Response HTS to Identify Activators of 5'UTR Stem-Loop Driven Prion Protein mRNA Translation in H4 Neuroglioblastoma Cells. [Related pubchem assays: 1829 (Project Summary), 1814 (Primary HTS)]; assay type: functional; details: Homo sapiens
# Beta-galactosidase = Beta-galactosidase (Escherichia coli, UniProt Q8VNN2); test: detection-enzyme interference by beta-gal modulators – biochemical, E. coli enzyme, set 3, artefact control for CCR6 antagonist project, dose response (AID 504712); assay type: functional
# [3] = viability loss in HepG2 hepatoma cells – cell-based, ATP luminescence, cherry-pick, activator set 2, cytotoxicity control, dose response (AID 1053143); assay type: functional
# [4] = target: T2, Oxysterols receptor LXR-beta (Homo sapiens, UniProt P55055); assay type: functional, cell-based;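 also: agonist activity at LXR measured by a cell-based luminescence readout across a dose range, run as a counterscreen for daf-12 agonists; HEK293 cells with Gal4-LXR fusion and GAL4-driven luciferase reporter; potency for activation of Gal4-LXR reporter so compounds are agonists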
# T2 sequence (P55055 whole entry): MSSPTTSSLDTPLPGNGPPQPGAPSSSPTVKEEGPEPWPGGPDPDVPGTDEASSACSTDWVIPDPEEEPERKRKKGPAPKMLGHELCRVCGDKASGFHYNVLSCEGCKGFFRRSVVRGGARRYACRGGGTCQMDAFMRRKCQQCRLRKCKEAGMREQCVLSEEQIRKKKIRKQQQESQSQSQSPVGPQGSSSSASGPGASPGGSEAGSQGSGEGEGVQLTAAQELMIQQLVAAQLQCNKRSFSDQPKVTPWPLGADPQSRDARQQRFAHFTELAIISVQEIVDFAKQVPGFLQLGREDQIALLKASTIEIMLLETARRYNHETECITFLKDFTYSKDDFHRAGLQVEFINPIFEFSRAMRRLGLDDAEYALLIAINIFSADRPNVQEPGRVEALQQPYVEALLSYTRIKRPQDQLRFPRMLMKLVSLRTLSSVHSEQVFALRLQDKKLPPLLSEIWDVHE
# [5] = target: Glyceraldehyde-3-phosphate dehydrogenase (Homo sapiens, UniProt P04406)
# Trypsin = Trypsin (Sus scrofa, UniProt P00761); test: trypsin protease activity blockade – biochemical, quenched peptide fluorescence, cherry-pick, selectivity assay for Rce1 protease inhibitor project, dose response (AID 488789)
# CAAX prenyl protease 2 = target: T3, CAAX prenyl protease 2 (Saccharomyces cerevisiae S288c, UniProt Q03530); assay type: biochemical
# T3 sequence (Q03530 whole entry): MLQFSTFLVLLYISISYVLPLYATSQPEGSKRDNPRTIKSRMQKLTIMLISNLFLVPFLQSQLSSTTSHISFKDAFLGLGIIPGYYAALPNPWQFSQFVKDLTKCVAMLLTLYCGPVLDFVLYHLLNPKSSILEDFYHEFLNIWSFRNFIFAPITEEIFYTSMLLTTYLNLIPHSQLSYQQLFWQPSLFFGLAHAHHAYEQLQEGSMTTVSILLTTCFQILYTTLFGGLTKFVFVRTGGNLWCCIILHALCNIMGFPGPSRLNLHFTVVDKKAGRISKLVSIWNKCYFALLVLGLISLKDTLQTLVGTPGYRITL
# [6] = reduced cellular PGC1a acetyl-lysine signal – cell-based, cherry-picked samples, dose response (AID 720514); assay type: functional;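 also: potency may reflect raised or lowered acetylation signal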
# [7] = M. tuberculosis H37Rv growth inhibitors, H37Rv strain (AID 1626); assay type: functional
# Major prion protein = Major prion protein (Homo sapiens, UniProt P04156); assay type: functional, cell-based
# [8] = NIH-3T3 fibroblast cytotoxicity, dose response, cytotoxicity control, cell-based, fluorescence, Alamar Blue, secondary assay (AID 2327); assay type: functional;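 also: NIH-3T3 mouse fibroblasts cultured with fluconazole at 8 µg/mL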
# [9] = fluconazole-exposed Candida albicans growth modulators – fluorescence, retest, confirmation (AID 2467); assay type: functional, cell-based
# [10] = viability of PTEN-deleted HCT116 cells – cell-based, HCT116 PTEN knockout, dose response (AID 1047); assay type: functional;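 also: HCT116 colon tumor cells with PTEN knocked out; cells exposed to compound for 60 hours before readout; potency for loss of cell viability measured by luminescence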
# [11] = viability of HCT116 lacking mutant beta-catenin – cell-based, human colon tumor, dose response (AID 1045); assay type: functional;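 also: HCT116 colon tumor cells with beta catenin knocked out; cells exposed to compound for 60 hours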
compound,measurement,setting,value
O=C(CCN1CCc2ccccc21)c1ccc2c(c1)OCCO2,EC50,[1],53.2 µM (active)
same,EC50,[2],110 µM (active)
same,IC50,Bcl-2-like protein 10,59.3 µM (inactive)
same,EC50,H4,46.1 µM (active)
CCCC(=O)N1c2ccccc2C(=C2SC(C(=O)OC)=C(C(=O)OC)S2)C(=S)C1(C)C,EC50,[1],> 60 µM (not active)
same,EC50,[2],> 120 µM (not active)
same,EC50,H4,> 120 µM (not active)
same,IC50,Beta-galactosidase,> 66.6 µM (inactive)
O=C(Nc1ncccc1O)c1cc2ccccc2o1,AC50,[3],26 µM (active)
same,EC50,[4],> 67.6 µM (inactive)
COc1ccc(N2CCN(C3=C(Cl)C(=O)N(c4cccc(C)c4)C3=O)CC2)cc1,IC50,[5],> 50 µM (inconclusive)
COc1cc2cc(C(=O)O)[nH]c2c(OC)c1OC,AC50,Trypsin,23 µM (active)
same,AC50,CAAX prenyl protease 2,> 100 µM (inactive)
CCc1ccc(NC(=O)CSc2nnc(-c3cnccn3)n2Cc2ccco2)cc1,AC50,[6],32.5 µM (active)
CCCc1ccc(-c2cc(C(=O)NC3=NCCS3)c3ccccc3n2)cc1,IC50,[7],> 100 µM (active)
Cc1nc2ccc(Br)cc2c(-c2ccccc2)c1C(=O)O,IC50,Major prion protein,5.47 µM (active)
same,IC50,cells,> 138 µM (inactive)
COc1ccc(Nc2cc(C)nc3nc(C)nn23)cc1Cl,IC50,Bcl-2-like protein 10,> 100 µM (inactive)
O=C(COc1ccccc1)Nc1cccc(-c2nc3cc4ccccc4cc3[nH]2)c1,EC50,[8],7.43 µM (active)
same,EC50,[9],1.64 µM (active)
same,EC50,[10],11.8 µM (active)
same,EC50,[11],12.1 µM (active)
same,AC50,Trypsin,5.74 µM (active)
